# According to publication PMC9810167, “Novel dual LSD1/HDAC6 inhibitor for the treatment of cancer” (PLOS ONE, 2023):
# Legend:
# MM1.S xenograft = assay: MM1.S multiple myeloma xenograft model; assay type: in vivo; settings: Bortezomib 0.5 mg/kg IP BIW; mice dead/group
# HEL 92.1.7 = assay: Cell proliferation assay (Alamar Blue); assay type: cell-based, human
# Protocol: Cells were seeded in NUNC 96-well tissue culture plates (Life Technologies) in […] culture medium and incubated at 37°C/ 5% CO2 to adhere to plastic for 18–24 h. […] One set of plates (designated for the 144 h read out) were centrifuged at low speed for 30 seconds, and respective compounds were replenished in fresh media and incubated for another 68–72 h at 37°C/ 5% CO2. […] The inhibition curve was then fitted by plotting % inhibition against log concentration in GraphPad Prism 5.0 (GraphPad Software, Inc.) and the GI50 value of compound was determined. Data are representative of at least two independent experiments.
SMILES,mortality (MM1.S xenograft),"anti-proliferative EC50, 72 h (HEL 92.1.7; HEL92.1.7, 3 days (72 h) of incubation)","cell growth inhibition reached (plateau) (HEL 92.1.7; HEL92.1.7, 6 days of incubation, up to 10 μM)"
"CC(C)C[C@H](NC(=O)[C@H](Cc1ccccc1)NC(=O)c1cnccn1)B(O)O [Bortezomib, reference compound]",1/7,,
N[C@H]1CC[C@H](N[C@@H]2C[C@H]2c2ccccc2)CC1 [Iadademstat],,did not show any measurable anti-proliferative activity,50–60%
